Numbers after ± are expanded uncertainties.
Assays:
[1] = DTA
[2] = Molar enthalpy of transition or fusion; conditions: Crystal 2; DSC
[3] = molar heat capacity at constant pressure; conditions: 101.33 kPa

O=N[O-].[Na+] [sodium nitrite]
[1]
Conditions | Normal melting temperature [°C] | Triple point temperature [K]
Crystal 1 | 280.1 ± 0.5 | –
Crystal 2 | – | 438.7 ± 0.4
Crystal 3 | – | 437.2 ± 0.4

Conditions | Molar enthalpy of transition or fusion [kcal/mol]
[2] | 3.32 ± 0.0956

[3]
Conditions | molar heat capacity at constant pressure [J/K/mol]
273.15 K, Crystal 3, Small sample (50 mg) DSC | 85.2 ± 5.2
278.15 K, Crystal 3, Small sample (50 mg) DSC | 85.3 ± 5.2
283.15 K, Crystal 3, Small sample (50 mg) DSC | 86 ± 5
288.15 K, Crystal 3, Small sample (50 mg) DSC | 86.6 ± 5.2
293.15 K, Crystal 3, Small sample (50 mg) DSC | 87.3 ± 5.2
298.15 K, Crystal 3, Small sample (50 mg) DSC | 88.1 ± 5.2
303.15 K, Crystal 3, Large sample (1 g) DSC | 85.3 ± 4.2
303.15 K, Crystal 3, Small sample (50 mg) DSC | 88.8 ± 5.2
308.15 K, Crystal 3, Small sample (50 mg) DSC | 90.1 ± 5.2
313.15 K, Crystal 3, Small sample (50 mg) DSC | 90.8 ± 5.2
318.15 K, Crystal 3, Small sample (50 mg) DSC | 91.8 ± 5.2
323.15 K, Crystal 3, Large sample (1 g) DSC | 89.3 ± 4.4
323.15 K, Crystal 3, Small sample (50 mg) DSC | 92.8 ± 5.2
328.15 K, Crystal 3, Small sample (50 mg) DSC | 94 ± 5
333.15 K, Crystal 3, Small sample (50 mg) DSC | 95.3 ± 5.2
338.15 K, Crystal 3, Small sample (50 mg) DSC | 96.7 ± 5.2
343.15 K, Crystal 3, Large sample (1 g) DSC | 94.1 ± 4.6
343.15 K, Crystal 3, Small sample (50 mg) DSC | 98 ± 5
348.15 K, Crystal 3, Small sample (50 mg) DSC | 99.8 ± 5.2
353.15 K, Crystal 3, Small sample (50 mg) DSC | 101.3 ± 5.2
358.15 K, Crystal 3, Small sample (50 mg) DSC | 102.5 ± 5.2
363.15 K, Crystal 3, Large sample (1 g) DSC | 99.9 ± 4.9
363.15 K, Crystal 3, Small sample (50 mg) DSC | 103.5 ± 5.2
368.15 K, Crystal 3, Small sample (50 mg) DSC | 106.2 ± 5.3
373.15 K, Crystal 3, Small sample (50 mg) DSC | 108.2 ± 5.3
378.15 K, Crystal 3, Small sample (50 mg) DSC | 109.9 ± 5.3
383.15 K, Crystal 3, Large sample (1 g) DSC | 107.8 ± 5.3
383.15 K, Crystal 3, Small sample (50 mg) DSC | 111.6 ± 5.3
388.15 K, Crystal 3, Small sample (50 mg) DSC | 115.3 ± 5.3
393.15 K, Crystal 3, Small sample (50 mg) DSC | 118.2 ± 5.3
398.15 K, Crystal 3, Small sample (50 mg) DSC | 121.5 ± 5.3
403.15 K, Crystal 3, Large sample (1 g) DSC | 119.3 ± 5.9
403.15 K, Crystal 3, Small sample (50 mg) DSC | 124.4 ± 5.3
408.15 K, Crystal 3, Small sample (50 mg) DSC | 130 ± 6
413.15 K, Crystal 3, Small sample (50 mg) DSC | 135.6 ± 5.8
418.15 K, Crystal 3, Small sample (50 mg) DSC | 142.7 ± 6.1
419.15 K, Crystal 3, Small sample (50 mg) DSC | 144.39 ± 6.1
420.15 K, Crystal 3, Small sample (50 mg) DSC | 146.16 ± 6.2
421.15 K, Crystal 3, Small sample (50 mg) DSC | 148.05 ± 6.3
422.15 K, Crystal 3, Small sample (50 mg) DSC | 150.11 ± 6.4
423.15 K, Crystal 3, Small sample (50 mg) DSC | 152.4 ± 6.5
424.15 K, Crystal 3, Small sample (50 mg) DSC | 154.72 ± 6.6
425.15 K, Crystal 3, Small sample (50 mg) DSC | 157.33 ± 6.7
426.15 K, Crystal 3, Small sample (50 mg) DSC | 160.25 ± 6.8
427.15 K, Crystal 3, Small sample (50 mg) DSC | 163.31 ± 6.9
428.15 K, Crystal 3, Small sample (50 mg) DSC | 166.7 ± 7.1
429.15 K, Crystal 3, Small sample (50 mg) DSC | 170.6 ± 7.2
430.15 K, Crystal 3, Small sample (50 mg) DSC | 175.1 ± 7.4
431.15 K, Crystal 3, Small sample (50 mg) DSC | 180.4 ± 7.7
437.25 K, Crystal 2, Small sample (50 mg) DSC | 215.4 ± 11
437.35 K, Crystal 2, Small sample (50 mg) DSC | 213.7 ± 11
437.45 K, Crystal 2, Small sample (50 mg) DSC | 213.5 ± 11
437.55 K, Crystal 2, Small sample (50 mg) DSC | 213.7 ± 11
437.75 K, Crystal 2, Small sample (50 mg) DSC | 215.5 ± 11
437.85 K, Crystal 2, Small sample (50 mg) DSC | 217.1 ± 11
437.95 K, Crystal 2, Small sample (50 mg) DSC | 220.4 ± 12
438.05 K, Crystal 2, Small sample (50 mg) DSC | 223.4 ± 12
438.15 K, Crystal 2, Small sample (50 mg) DSC | 223.6 ± 12
468.15 K, Crystal 1, Small sample (50 mg) DSC | 129 ± 6.7
473.15 K, Crystal 1, Small sample (50 mg) DSC | 129.8 ± 6.8
478.15 K, Crystal 1, Small sample (50 mg) DSC | 130.8 ± 6.8
483.15 K, Crystal 1, Large sample (1 g) DSC | 131.6 ± 6.5
483.15 K, Crystal 1, Small sample (50 mg) DSC | 131.9 ± 6.9
488.15 K, Crystal 1, Small sample (50 mg) DSC | 133.2 ± 7
493.15 K, Crystal 1, Small sample (50 mg) DSC | 134.7 ± 7
498.15 K, Crystal 1, Small sample (50 mg) DSC | 136 ± 7.1
503.15 K, Crystal 1, Large sample (1 g) DSC | 138.7 ± 6.8
503.15 K, Crystal 1, Small sample (50 mg) DSC | 137.8 ± 7.2
508.15 K, Crystal 1, Small sample (50 mg) DSC | 140 ± 7.3
513.15 K, Crystal 1, Small sample (50 mg) DSC | 142.4 ± 7.5
518.15 K, Crystal 1, Small sample (50 mg) DSC | 145.2 ± 7.6
521.15 K, Crystal 1, Small sample (50 mg) DSC | 147.7 ± 7.7
522.15 K, Crystal 1, Small sample (50 mg) DSC | 148.5 ± 7.8
523.15 K, Crystal 1, Large sample (1 g) DSC | 148.8 ± 7.3
523.15 K, Crystal 1, Small sample (50 mg) DSC | 148.9 ± 7.8
524.15 K, Crystal 1, Small sample (50 mg) DSC | 149.8 ± 7.8
525.15 K, Crystal 1, Small sample (50 mg) DSC | 150.9 ± 7.9
526.15 K, Crystal 1, Small sample (50 mg) DSC | 152 ± 8
527.15 K, Crystal 1, Small sample (50 mg) DSC | 153 ± 8
528.15 K, Crystal 1, Small sample (50 mg) DSC | 153.2 ± 8
529.15 K, Crystal 1, Small sample (50 mg) DSC | 155 ± 8.1
530.15 K, Crystal 1, Small sample (50 mg) DSC | 156 ± 8.2
531.15 K, Crystal 1, Small sample (50 mg) DSC | 157.5 ± 8.2
532.15 K, Crystal 1, Small sample (50 mg) DSC | 158.7 ± 8.3
533.15 K, Crystal 1, Large sample (1 g) DSC | 161.2 ± 7.9
533.15 K, Crystal 1, Small sample (50 mg) DSC | 160.2 ± 8.4
534.15 K, Crystal 1, Small sample (50 mg) DSC | 161.8 ± 8.5
535.15 K, Crystal 1, Small sample (50 mg) DSC | 163.1 ± 8.5
536.15 K, Crystal 1, Small sample (50 mg) DSC | 165.7 ± 8.7
537.15 K, Crystal 1, Small sample (50 mg) DSC | 168 ± 8.8
538.15 K, Crystal 1, Small sample (50 mg) DSC | 169.8 ± 8.9
539.15 K, Crystal 1, Small sample (50 mg) DSC | 173.2 ± 9.1
540.15 K, Crystal 1, Small sample (50 mg) DSC | 176.4 ± 9.2

[3], Liquid, Small sample (50 mg) DSC
Conditions | molar heat capacity at constant pressure [J/K/mol]
562.15 K | 116.8 ± 6.1
563.15 K | 110 ± 5.8
564.15 K | 110.2 ± 5.8
565.15 K | 109.9 ± 5.8
566.15 K | 110.2 ± 5.8
568.15 K | 110.9 ± 5.8
573.15 K | 111.9 ± 5.9
578.15 K | 112.3 ± 5.9
583.15 K | 112.6 ± 5.9
